Measurements published in ChEMBL document CHEMBL3045234, “Synthesis of new pyridazinone derivatives as platelet aggregation inhibitors” (2010).

Legend:
Assay type in all cases: functional
[1] = Antiplatelet activity in Mus musculus Laca (mouse) platelet assessed as bleeding time at 60 mg/kg, po after 1 hr by tail transaction bleeding test (reference value: 3.2 +/- 0.218 min)
[2] = Antiplatelet activity in Mus musculus Laca (mouse) platelet assessed as bleeding time at 30 mg/kg, po after 1 hr by tail transaction bleeding test (reference value: 3.2 +/- 0.218 min)
[3] = Antiplatelet activity in Mus musculus Laca (mouse) platelet assessed as bleeding time at 7.5 mg/kg, po after 1 hr by tail transaction bleeding test (reference value: 3.2 +/- 0.218 min)
[4] = Antiplatelet activity in Mus musculus Laca (mouse) platelet assessed as bleeding time at 15 mg/kg, po after 1 hr by tail transaction bleeding test (reference value: 3.2 +/- 0.218 min)
[5] = Antiplatelet activity in Mus musculus Laca (mouse) platelet assessed as bleeding time at 15 mg/kg, po after 1 hr by tail transaction bleeding test relative to aspirin

Compound | Time [1] | Time [2] | Time [3] | Time [4] | fold change (FC) [5]
O=C1CCC(c2ccc(NCc3ccccc3O)cc2)=NN1 | 9.2 min | 8.5 min | 4.4 min | 7.4 min | –
O=C1CCC(c2ccc(NCc3c[nH]c4ccccc34)cc2)=NN1 | 9.7 min | 9.2 min | 5.5 min | 8.3 min | >2
O=C1CCC(c2ccc(NCc3ccncc3)cc2)=NN1 | 7 min | 6.2 min | 4.3 min | 5.3 min | –
COc1cc(CNc2ccc(C3=NNC(=O)CC3)cc2)cc(OC)c1OC | 6.5 min | 6.1 min | 4.4 min | 5.2 min | –
COc1ccc(CNc2ccc(C3=NNC(=O)CC3)cc2)cc1OC | 7.1 min | 6.5 min | 4.2 min | 5.6 min | –
COc1cc(CNc2ccc(C3=NNC(=O)CC3)cc2)ccc1O | 7.3 min | 6.1 min | 4.1 min | 5.2 min | –
O=C1CCC(c2ccc(NCc3ccc(F)cc3)cc2)=NN1 | 7 min | 6.2 min | 3.8 min | 4.9 min | –
CC(=O)Oc1ccccc1C(=O)O [ASPIRIN] | 6.6 min | 6.1 min | 4.2 min | 5.3 min | –
O=C1CCC(c2ccc(NCc3cccnc3)cc2)=NN1 | 6.6 min | 6.2 min | 4.1 min | 5.5 min | –
